Test results published in patent publication US6380181B1, “Synthetic catechol derivatives, method for production and use thereof” (priority 1996, dated 2002).
≈ marks a conversion by molar mass, not a printed value.

Key:
Assay type in all cases: cell-based
[1] = system: Stenotrophomonas maltophilia GN 12873; assay: Agar diffusion test; settings: concentration 100 μg/ml
E. coli DC2 = assay: microbe, parasite or virus in culture
Experimental: (§1) The minimum inhibiting concentrations (MICs) were determined for the following bacterial strains: Pseudomonas aeruginosa NCTC 10701, NCTC 10662, SG 137, ATCC 27853, KW 799 WT and KW 799/61, E. coli DCO, DC2 and ATCC 25922, Serratia marcescens SG 621; Salmonella gallinarum ATCC 9184, Klebsiella pneumoniae ATCC 10031 and SG 117.
(§2) With the test germs KW 799/WT and /61 of Pseudomonas and DCO and DC2 of E. coli, the effect of improved penetration capacity on the efficacy of the substances was investigated.

E. coli DC0 = assay: Microdilution test (MIC); settings: E. coli DC0
Experimental: as §1, §2

[2] = system: Pseudomonas aeruginosa KW 799/61; assay: Microdilution test (MIC)
Experimental: as §1, §2

[3] = system: Pseudomonas aeruginosa KW 799 WT; assay: Microdilution test (MIC); settings: P. aeruginosa KW 799/WT
Experimental: as §1, §2

E. coli DC0 (wild type) = assay: Agar diffusion test; settings: concentration 100 μg/ml
[4] = system: Pseudomonas aeruginosa KW 799 WT (wild type); assay: Agar diffusion test; settings: concentration 100 μg/ml; P. aeruginosa KW799/WT
[5] = system: Pseudomonas aeruginosa NCTC 10662; assay: Agar diffusion test; settings: concentration 100 μg/ml; P. aeruginosa NCTC 10662
[6] = system: Pseudomonas aeruginosa ATCC 9027 (wild type); assay: Agar diffusion test; settings: concentration 100 μg/ml; P. aeruginosa ATCC 9027
[7] = system: Pseudomonas aeruginosa ATCC 27853 (wild type); assay: Agar diffusion test; settings: concentration 100 μg/ml; P. aeruginosa ATCC 27853
[8] = system: Pseudomonas aeruginosa NPS1 (plasmid-coded β-lactamase); settings: concentration 100 μg/ml; P. aeruginosa NPS 1
[9] = system: Salmonella gallinarum ATCC 9184; assay: microbe, parasite or virus in culture; settings: Salmonella enterica; Salmonella gallinarum ATCC9184; read-out: MIC values, microdilution test
Experimental: as §1

[10] = system: Pseudomonas aeruginosa SG 137 (carbenicillin-resistant); assay: Agar diffusion test; settings: concentration 100 μg/ml; P. aeruginosa SG 137
[11] = system: Pseudomonas aeruginosa SG 137; assay: Microdilution test (MIC); settings: P. aeruginosa SG 137
Experimental: as §1

[12] = system: Pseudomonas aeruginosa NCTC 10701; assay: Microdilution test (MIC); settings: Pseudomonas aeruginosa, NCTC10701; P. aeruginosa NCTC 10701
Experimental: as §1

[13] = system: Pseudomonas aeruginosa NCTC 10662; assay: Microdilution test (MIC); settings: P. aeruginosa NCTC 10662
Experimental: as §1

E. coli ATCC 25922 = assay: Microdilution test (MIC)
Experimental: as §1

[14] = system: Serratia marcescens SG 621; assay: Microdilution test (MIC)
Experimental: as §1

[15] = system: Pseudomonas aeruginosa ATCC 27853; assay: Microdilution test (MIC); settings: Pseudomonas aeruginosa, ATCC27853; P. aeruginosa ATCC 27853
Experimental: as §1

[16] = system: Klebsiella pneumoniae ATCC 10031; assay: Microdilution test (MIC)
Experimental: as §1

[17] = system: Salmonella gallinarum ATCC 9184; settings: concentration 100 μg/ml; Salmonella galinarum ATCC 9184
[18] = system: E. coli DC2 (penetration mutant); settings: concentration 100 μg/ml
[19] = system: Pseudomonas aeruginosa KW 799/61 (penetration mutant); settings: concentration 100 μg/ml; P. aeruginosa KW799/61
[20] = system: Klebsiella pneumoniae SG 117; assay: Agar diffusion test; settings: concentration 100 μg/ml
[21] = system: E. coli mutant PLB3268 ompF++; settings: E. coli mutant PLB3268 ompF++ (ompF super-expressed)
Excerpt: (§3) The efficacy against β-lactamase formers and against multi-resistant germs is therefore due to a new type of mechanism for overcoming the penetration resistance, by means of which the ratio of active ingredient to enzyme in the bacterial cell is influenced so that not all antibiotic molecules are inactivated before they reach their target.
PLB268: ompF- was super-expressed.

[22] = system: Pseudomonas aeruginosa NCTC 10701; assay: Agar diffusion test; settings: concentration 100 μg/ml; P. aeruginosa NCTC 10701
E. coli mutant KB4 ompF− = system: E. coli mutant KB4 ompF−
Excerpt: as §3

E. coli mutant KB5 ompC− = system: E. coli mutant KB5 ompC−
Excerpt: as §3

[23] = system: Stenotrophomonas maltophilia IMET 10402; assay: Agar diffusion test; settings: concentration 100 μg/ml
[24] = system: Stenotrophomonas maltophilia GN 12873; assay: Microdilution test (MIC)
[25] = system: Pseudomonas aeruginosa Oxa6 (plasmid-coded β-lactamase); settings: concentration 100 μg/ml; P. aeruginosa OXA 6
[26] = system: Yersinia enterocolitica WAH; settings: Y. enterocol. WAH
Excerpt: (§4) In the indicator mutants, the synthesis of the respective siderophores, e.g. pyoverdin, pyochelin, enterobactin, aerobactin or yersiniabactin, or the biosynthesis of aromatic compounds, is blocked, or there is a lack of receptors for enterobactin, pyochelin or pyoverdin and for other important components for the bacterial transport of iron (e.g. the membrane proteins Cir, Fiu, FepA and TonB). Under conditions where there is a lack of iron, these mutants therefore cannot grow or can only grow to a very slight extent. In particular, the following indicator mutants were used: Pseudomonas aeruginosa PAO 6609, K 407, 690; E. coli AB 2847, Salmonella typhimurium enb-7, TA 270; Klebsiella pneumoniae KN 4401; Yersinia enterocolitica WAH; Proteus mirabilis 12 (wild); Proteus vulgaris 718 (wild) and Morganella morganii SBK3 (wild). […] The controls used were ferrioxamine E for the Pseudomonas strains, ferrioxamine G and enterobactin for the Salmonella strains, ferrichrome for the E. coli, Klebsiella and Y. enterocol. strains, and 3,4-dihydroxybenzylidene-2,4,6-trimethylaniline for Morganella morganii (see the above literature reference by R. Reissbrodt et al.).
(§5) The annotations + and (+) relate to non-specific promotion of growth.

[27] = system: Pseudomonas aeruginosa 690
Excerpt: as §4, §5

[28] = system: Morganella morganii SBK3 (wild)
Excerpt: as §4, §5

[29] = system: Pseudomonas aeruginosa PAO 6609
Excerpt: as §4, §5

[30] = system: Klebsiella pneumoniae KN 4401; settings: Klebsiella KN 4401
Excerpt: as §4, §5

[31] = system: Salmonella typhimurium TA 2700
Excerpt: as §4, §5

[32] = system: Proteus vulgaris 718 (wild)
Excerpt: as §4, §5

E. coli AB 2847 = system: E. coli AB 2847
Excerpt: as §4, §5

[33] = system: Salmonella typhimurium enb-7
Excerpt: as §4, §5

[34] = system: Proteus mirabilis 12 (wild)
Excerpt: as §4, §5

[35] = system: Pseudomonas aeruginosa K 407; settings: Pseudomonas aeruginosa K407
Excerpt: as §4, §5

E. coli AB2847 tonB+ = system: E. coli AB2847 tonB+
[36] = system: E. coli mutant BR185 tonB−
[37] = Escherichia coli, read-out: MIC values, microdilution test

CC1(C)S[C@@H]2[C@H](NC(=O)[C@H](N)c3ccccc3)C(=O)N2[C@H]1C(=O)O [Ampicillin, reference compound]
inhibition spot diameter in the agar diffusion test [1]: 0 mm
MIC (E. coli DC2; [37]): 1.56 µg/mL (≈ 4.46 µM)
MIC (E. coli DC0; [37]): 6.25 µg/mL (≈ 17.9 µM)
MIC ([2]; Pseudomonas aeruginosa, KW799/61, P. aeruginosa KW 799/61): 0.4 µg/mL (≈ 1.14 µM)
MIC ([3]; Pseudomonas aeruginosa, KW799WT): > 100 µg/mL
inhibition spot diameter in the agar diffusion test (E. coli DC0 (wild type)): 22 mm
inhibition spot diameter in the agar diffusion test [4]: 0 mm
inhibition spot diameter in the agar diffusion test [5]: 0 mm
inhibition spot diameter in the agar diffusion test [6]: 0 mm
inhibition spot diameter in the agar diffusion test [7]: 0 mm
inhibition spot diameter in the agar diffusion test [8]: 0 mm
MIC [9]: 0.2 µg/mL (≈ 0.572 µM)
inhibition spot diameter in the agar diffusion test [10]: 0 mm
MIC ([11]; Pseudomonas aeruginosa, SG137): > 100 µg/mL
MIC [12]: > 100 µg/mL
MIC ([13]; Pseudomonas aeruginosa, NCTC10662): > 100 µg/mL
MIC (E. coli ATCC 25922; Escherichia coli, ATCC25922): 6.25 µg/mL (≈ 17.9 µM)
MIC ([14]; SG621): 25 µg/mL (≈ 71.5 µM)
MIC [15]: > 100 µg/mL
MIC ([16]; ATCC10031): 50 µg/mL (≈ 143 µM)
inhibition spot diameter in the agar diffusion test [17]: 34 mm
inhibition spot diameter in the agar diffusion test [18]: 32 mm
inhibition spot diameter in the agar diffusion test [19]: 41 mm
inhibition spot diameter in the agar diffusion test [20]: 19 mm
inhibition spot diameter in agar diffusion test [21]: 17.5 mm
inhibition spot diameter in the agar diffusion test [22]: 0 mm
inhibition spot diameter in agar diffusion test (E. coli mutant KB4 ompF−): 10 mm
inhibition spot diameter in agar diffusion test (E. coli mutant KB5 ompC−): 9.5 mm
inhibition spot diameter in the agar diffusion test [23]: 0 mm
MIC ([24]; GN12873): > 100 µg/mL
inhibition spot diameter in the agar diffusion test [25]: 0 mm

O=C(O)c1ccc(O)c(N=Cc2cccc(O)c2O)c1 [Substance 3]
Growth areas of siderophore indicator strains (diameter) [26]: 0 mm
Growth areas of siderophore indicator strains (diameter) [27]: 0 mm
Growth areas of siderophore indicator strains (diameter) [28]: 20 mm
Growth areas of siderophore indicator strains (diameter) [29]: 0 mm
Growth areas of siderophore indicator strains (diameter) [30]: 32 mm
Growth areas of siderophore indicator strains (diameter) [31]: 0 mm
Growth areas of siderophore indicator strains (diameter) [32]: 18 mm
Growth areas of siderophore indicator strains (diameter) (E. coli AB 2847): 22 mm
Growth areas of siderophore indicator strains (diameter) [33]: 28 mm
Growth areas of siderophore indicator strains (diameter) [34]: 18 mm
Growth areas of siderophore indicator strains (diameter) [35]: 0 mm

O=C(O)c1ccc(N=Cc2cccc(O)c2O)c(O)c1 [Substance 5]
Growth areas of siderophore indicator strains (diameter) [26]: 0 mm
Growth areas of siderophore indicator strains (diameter) [27]: 0 mm
Growth areas of siderophore indicator strains (diameter) [28]: 21 mm
Growth areas of siderophore indicator strains (diameter) [29]: 0 mm
Growth areas of siderophore indicator strains (diameter) [30]: 0 mm
Growth areas of siderophore indicator strains (diameter) [31]: 0 mm
Growth areas of siderophore indicator strains (diameter) [32]: 21 mm
Growth areas of siderophore indicator strains (diameter) (E. coli AB 2847): 15 mm
Growth areas of siderophore indicator strains (diameter) [33]: 0 mm
Growth areas of siderophore indicator strains (diameter) [34]: 19 mm
Growth areas of siderophore indicator strains (diameter) [35]: 0 mm

O=C(O)c1cc(O)c(O)c(C=NNC(=O)c2cccc(O)c2O)c1 [Substance 13, 3-formyl-4,5-dihydroxybenzoic Acid-(2,3-dihydroxy-benzhydrazone)]
Growth areas of siderophore indicator strains (diameter) [26]: 10 mm
Growth areas of siderophore indicator strains (diameter) [27]: 10 mm
Growth areas of siderophore indicator strains (diameter) [28]: 24 mm
Growth areas of siderophore indicator strains (diameter) [29]: 10 mm
Growth areas of siderophore indicator strains (diameter) [30]: 15 mm
Growth areas of siderophore indicator strains (diameter) [31]: 23 mm
Growth areas of siderophore indicator strains (diameter) [32]: 23 mm
Growth areas of siderophore indicator strains (diameter) [33]: 18 mm
Growth areas of siderophore indicator strains (diameter) [34]: 23 mm
Growth areas of siderophore indicator strains (diameter) [35]: 11 mm

CC(=O)Oc1cccc(C(=O)Nc2ccc(C(=O)N[C@@H](C(=O)N[C@@H]3C(=O)N4[C@@H]3SC(C)(C)[C@@H]4C(=O)O)c3ccccc3)cc2)c1OC(C)=O [Substance 29]
inhibition spot diameter in the agar diffusion test [1]: 19 mm
inhibition spot diameter in agar diffusion test (E. coli AB2847 tonB+): 6 mm
MIC values, microdilution test (E. coli DC2): 1.56 µg/mL (≈ 2.27 µM)
MIC values, microdilution test (E. coli DC0): 50 µg/mL (≈ 72.6 µM)
MIC values, microdilution test [2]: 0.4 µg/mL (≈ 0.581 µM)
MIC values, microdilution test [3]: 3.12 µg/mL (≈ 4.53 µM)
inhibition spot diameter in the agar diffusion test (E. coli DC0 (wild type)): 22 mm
inhibition spot diameter in the agar diffusion test [4]: 27 mm
inhibition spot diameter in the agar diffusion test [6]: 21 mm
inhibition spot diameter in the agar diffusion test [8]: 12 mm
inhibition spot diameter in the agar diffusion test [10]: 28 mm
MIC values, microdilution test [11]: 0.78 µg/mL (≈ 1.13 µM)
MIC values, microdilution test [13]: 12.5 µg/mL (≈ 18.1 µM)
MIC values, microdilution test (E. coli ATCC 25922): 100 µg/mL (≈ 145 µM)
MIC values, microdilution test [14]: 25 µg/mL (≈ 36.3 µM)
MIC values, microdilution test [16]: 50 µg/mL (≈ 72.6 µM)
inhibition spot diameter in the agar diffusion test [17]: 22 mm
inhibition spot diameter in agar diffusion test [36]: 0 mm
inhibition spot diameter in the agar diffusion test [18]: 28 mm
inhibition spot diameter in the agar diffusion test [19]: 33 mm
inhibition spot diameter in the agar diffusion test [20]: 15 mm
inhibition spot diameter in agar diffusion test [21]: 14 mm
inhibition spot diameter in the agar diffusion test [22]: 23 mm
inhibition spot diameter in agar diffusion test (E. coli mutant KB4 ompF−): 9.5 mm
inhibition spot diameter in agar diffusion test (E. coli mutant KB5 ompC−): 7 mm
inhibition spot diameter in the agar diffusion test [23]: 23 mm
MIC values, microdilution test [24]: 12.5 µg/mL (≈ 18.1 µM)
inhibition spot diameter in the agar diffusion test [25]: 13 mm
